Results taken from patent publication US4065575A, “3-Aminomethyl derivatives of 4-chromanone” (Joullie International, priority 1975, dated 1977).
Entries after “also recorded” stand apart in the source; their conditions may differ. Structures can show the parent of a compound that is named as a salt.

Columns and labels:
[1] = system: mice; test: Acute toxicity in mice (LD 50); type: in vivo; details: intravenous; in words
Description: (§1) The study is carried out on batches of 5 Swiss female mice of the NMRI Han. strain. The products are administered either intravenously (into the caudal vein) in solution in a 9 g..permill. sodium chloride solution, or orally (probang) in suspension in a 10% solution of gum arabic.
(§2) The animals are observed for the 15 days following the administration of the products.
(§3) The LD 50 values are calculated by the method of Karber and Behrens (Arch. Exp. Pathol. Pharm. 177, 1935, page 379).

[2] = system: isolated auricle of a rabbit; test: Peripheral vasomotoricity, isolated and perfused auricle of a rabbit; details: for activation at 0.0001 mg / activation at 0.001 mg / activation at 0.01 mg / activation at 0.1 mg: Oryctolagus cuniculus, read-out: Maximum variations in the flow rate; for activation at 0.0001 mg: dose 0.1 μg.; for activation at 0.001 mg: dose 1 μg.; for activation at 0.01 mg: dose 10 μg.; for activation at 0.1 mg: dose 100 μg.; for peripheral vasodilatory action: in words; for duration of the effects / of the action: at the highest doses
Description: The flow rate of the liquid issuing from the veins is recorded by electronic contact on a polygraph. The products to be studied are injected at increasing doses into the perfusion tube and their actions are compared to that of isoxsuprine used as the reference substance.
The results, collected in Table No. III, are expressed in the maximum percentage increase of the flow rate at the various doses used.

[3] = system: hypertensive effects of electrical stimulation, adrenaline and noradrenaline; test: α-Sympatholytic effects in amyeliated rats; type: in vivo; details: for % variation of the hypertensive effects obtained with adrenaline: adrenaline 1.25 to 2.5 μg./kg.; for % variation of the hypertensive effects obtained with noradrenaline: noradrenaline 1.25 to 2.5 μg./kg.
Source text: The α-sympatholytic effects of LJ 1052 and LJ 1053 are compared with those of isoxsuprine in amyeliated rats which have been prepared by a method derived from those of Shipley and Tilden (Proc. soc. Exp. Biol. Med. 1947, 64, 453-455) and of Gillespie and Muir (Br. J. Pharmac. Chemother. 1967, 30, 78-87).
The effects on the blood pressure of electrical stimulation of the thoracolumbar sympathic nerve (rectangular signals = voltage 20 to 40 volts; width 2 m. sec; frequency 10 secs.; duration 5 to 10 secs.) and of injections of adrenaline (1.25 to 2.5 μg./kg.) and of noradrenaline (1.25 to 2.5 μg./kg.) are determined before and after injection of the products tested.

[4] = Cardiovascular action in dogs; type: in vivo, male Beagle dogs
Description: Male Beagle dogs weighing 9 to 12 kg. were anaesthetised by intrasaphenous injection of a 2% solution of chloralose in physiological solution, at a dose of 100 mg./kg.
The anaesthesia is maintained by slow perfusion of 5% pentobarbital (1.2 ml./hour).
The animals are tracheotomised and placed under assisted respiration by means of a Bird respirator. Their oxygenation and their acid-base equilibrium are controlled by determination of the pH, the pCO2 and the pO2 on blood samples taken from a collateral of the brachial artery (pH/gas analyser for blood, IL model 213/227).
The different parameters are recorded on a polygraph.

[5] = Acute toxicity in mice (LD 50); type: in vivo; details: mouse, in vivo, mice, 15 days observation
Description: as §1, §2, §3

[6] = dose 50 g./kg. (so in the source)
[7] = dose 100 g./kg. (so in the source)
[8] = dose 500 g./kg. (so in the source)
[9] = 0.04 mg./kg. i.v. (1/1,000 LD 50)
[10] = 0.04 mg./kg. i.v. (1/1,000 LD 50), first or only phase
[11] = 0.04 mg./kg. i.v. (1/1,000 LD 50), then
[12] = 0.5 mg./kg. i.v. (1/50 LD 50), then
[13] = 0.6 mg./kg. i.v. (1/50 LD 50), first phase
[14] = 0.6 mg./kg. i.v. (1/50 LD 50), then

Structure (SMILES) | intravenous LD 50 in mice (comparison of three products) [1] | activation at 0.0001 mg [2] | activation at 0.001 mg [2] | activation at 0.01 mg [2] | activation at 0.1 mg [2] | % variation of the hypertensive effects obtained with electrical stimulation [3, 6] | % variation of the hypertensive effects obtained with adrenaline [3, 6] | % variation of the hypertensive effects obtained with noradrenaline [3, 6] | % variation of the hypertensive effects obtained with electrical stimulation [3, 7] | % variation of the hypertensive effects obtained with adrenaline [3, 7] | % variation of the hypertensive effects obtained with noradrenaline [3, 7] | Diastolic AP, duration of action [4, 9] | Diastolic AP, maximum per cent variation [4, 9] | FF (mean flow rate of the femoral artery), maximum per cent variation [4, 9] | FF, duration of action [4, 9] | Hb (heart beat), maximum per cent variation [4, 9] | LD50 at 360 h ([5]; intravenous administration) | LD50 at 360 h ([5]; oral administration) | peripheral vasodilatory action [2] | duration of the effects / of the action [2] | other results
CC(COc1ccccc1)NC(C)C(O)c1ccc(O)cc1 (centres unmarked) [Isoxsuprine, reference compound] | practically identical | 38% | 61% | 117% | 175% | -27% | -69% | -36% | -25% | -75% | -44% | 20 min | -62% | +63% | 30 min | +13% | – | – | – | – | % variation of the hypertensive effects obtained with electrical stimulation [3, 8]: -66%; % variation of the hypertensive effects obtained with adrenaline [3, 8]: -100%; % variation of the hypertensive effects obtained with noradrenaline [3, 8]: -67%; Hb, duration of action [4, 9]: 25 min; LVP, duration of action [4, 9]: 5 min; Mean AP, duration of action [4, 9]: 20 min; Mean AP, maximum per cent variation [4, 9]: -50%; Systolic AP, duration of action [4, 9]: 10 min; Systolic AP, maximum per cent variation [4, 9]: +13%; LVP (left ventricular pressure), maximum per cent variation [4, 10]: -22%; dLVP/dt, maximum per cent variation [4, 10]: -18%; dLVP/dt, duration of action, second phase ("then") [4, 11]: 5 min; dLVP/dt, maximum per cent variation, second phase ("then") [4, 11]: +12%
CCCNCC1COc2ccccc2C1=O (centres unmarked) [LJ 1048, 3-(n-Propylaminomethyl)-4-chromanone hydrochloride] | – | 22% | 33% | 33% | 29% | – | – | – | – | – | – | – | – | – | – | – | 36 mg/kg | 362 mg/kg | low activity | – | Hb (heart beat), maximum per cent variation ([4]; 0.7 mg./kg. i.v. (1/50 LD 50)): +33%; Hb, duration of action ([4]; 0.7 mg./kg. i.v. (1/50 LD 50)): > 60 min; LVP (left ventricular pressure), maximum per cent variation ([4]; 0.7 mg./kg. i.v. (1/50 LD 50)): -21%; LVP, duration of action ([4]; 0.7 mg./kg. i.v. (1/50 LD 50)): 30 min; Mean AP, duration of action ([4]; 0.7 mg./kg. i.v. (1/50 LD 50)): > 60 min; Mean AP, maximum per cent variation ([4]; 0.7 mg./kg. i.v. (1/50 LD 50)): -38%; dLVP/dt, duration of action ([4]; 0.7 mg./kg. i.v. (1/50 LD 50)): 60 min; dLVP/dt, maximum per cent variation ([4]; 0.7 mg./kg. i.v. (1/50 LD 50)): +28%
CCCCNCC1COc2ccccc2C1=O (centres unmarked) [LJ 1049, 3-(n-Butylaminomethyl)-4-chromanone hydrochloride] | – | 36% | 36% | 115% | 138% | – | – | – | – | – | – | – | – | – | – | – | 24 mg/kg | 262 mg/kg | great | ≥ 30 min | FF (mean flow rate of the femoral artery), maximum per cent variation ([4]; 0.5 mg./kg. i.v. (1/50 LD 50)): +34%; FF, duration of action ([4]; 0.5 mg./kg. i.v. (1/50 LD 50)): 2 min; Hb (heart beat), maximum per cent variation ([4]; 0.5 mg./kg. i.v. (1/50 LD 50)): +21%; Hb, duration of action ([4]; 0.5 mg./kg. i.v. (1/50 LD 50)): 40 min; LVP (left ventricular pressure), maximum per cent variation ([4]; 0.5 mg./kg. i.v. (1/50 LD 50)): -19%; LVP, duration of action ([4]; 0.5 mg./kg. i.v. (1/50 LD 50)): 50 min; Mean AP, duration of action ([4]; 0.5 mg./kg. i.v. (1/50 LD 50)): 10 min; Mean AP, maximum per cent variation ([4]; 0.5 mg./kg. i.v. (1/50 LD 50)): -15%; dLVP/dt, maximum per cent variation ([4]; 0.5 mg./kg. i.v. (1/50 LD 50), first phase): -10%; dLVP/dt, duration of action, second phase ("then") [4, 12]: 10 min; dLVP/dt, maximum per cent variation, second phase ("then") [4, 12]: +20%
COCCCNCC1COc2ccccc2C1=O (centres unmarked) [LJ 1051, 3-(3-Methoxy-n-propylaminomethyl)-4-chromanone hydrochloride] | – | 0% | 36% | 100% | – | – | – | – | – | – | – | – | – | – | – | – | 33 mg/kg | 475 mg/kg | great | ≥ 30 min | LVP (left ventricular pressure), maximum per cent variation ([4]; 0.6 mg./kg. i.v. (1/50 LD 50)): -30%; LVP, duration of action ([4]; 0.6 mg./kg. i.v. (1/50 LD 50)): > 50 min; Mean AP, duration of action ([4]; 0.6 mg./kg. i.v. (1/50 LD 50)): > 50 min; Mean AP, maximum per cent variation ([4]; 0.6 mg./kg. i.v. (1/50 LD 50)): -21%; dLVP/dt, duration of action ([4]; 0.6 mg./kg. i.v. (1/50 LD 50)): > 50 min; dLVP/dt, maximum per cent variation ([4]; 0.6 mg./kg. i.v. (1/50 LD 50)): -60%; Hb (heart beat), maximum per cent variation [4, 13]: +20%; Hb, duration of action [4, 13]: 3 min; Hb, duration of action, second phase ("then") [4, 14]: 40 min; Hb, maximum per cent variation, second phase ("then") [4, 14]: -16%
COCCCCNCC1COc2ccccc2C1=O (centres unmarked) [LJ 1053, 3-(4-Methoxy-n-butylaminomethyl)-4-chromanone hydrochloride] | practically identical | 23% | 92% | 133% | 183% | -11% | -18% | -12% | -55% | -47% | -41% | 5 min | -60% | +104% | 3 min | +23% | 38 mg/kg | 285 mg/kg | – | ≥ 30 min | peripheral vasodilatory action ([2]; hydrochloride): great; also recorded: as active as isoxsuprine; Hb, duration of action [4, 9]: > 30 min; LVP, duration of action [4, 9]: > 10 min; Mean AP, duration of action [4, 9]: 5 min; Mean AP, maximum per cent variation [4, 9]: -45%; Systolic AP, duration of action [4, 9]: 15 min; Systolic AP, maximum per cent variation [4, 9]: +23%; LVP (left ventricular pressure), maximum per cent variation [4, 10]: -17%; dLVP/dt, maximum per cent variation [4, 10]: -12%; dLVP/dt, duration of action, second phase ("then") [4, 11]: > 10 min; dLVP/dt, maximum per cent variation, second phase ("then") [4, 11]: +25%
